# Laboratory results: US20070289032A1, “AGROBACTERIUM TRANSFORMATION OF GUAR” (SAMUEL ROBERTS NOBEL FOUNDATION, priority 2006, published 2007)
# Key:
# Assay type in all cases: cell-based, Cyamopsis tetragonoloba
# [1] = tested on: cotyledonary node explants of guar variety Lewis; experiment: Multiple shoot regeneration from cotyledonary node explants on B5 medium with growth regulators (Lewis); conditions: percentage of explants that formed shoots; B5 shoot initiation medium, hormone concentrations in μM
# Description: (§1) Explant preparation. Guar seeds of two American cultivars (Lewis and Kinman; e.g. (Undersander et al., 1991) were surface sterilized in concentrated sulphuric acid for 10 min followed by four washes in ice cold sterile distilled water. Subsequently the seeds were treated with 10% commercial bleach (containing 6.0% free chlorine) for 5 min with a few drops of Tween 20 and washed thoroughly three to four times in sterile distilled water. The sterile seeds were sown in magenta boxes on MS medium (Murashige and Skoog, 1962) with 3% sucrose, 0.8% agar, pH 5.8, and germination was continued for 7-9 days under a 16 h/8 h day/night regime at 25° C. Three-four mm long cotyledonary node explants comprising the meristematic zone were excised from the seedlings and used for shoot regeneration and transformation.
# (§2) Shoot regeneration. Shoot regeneration was performed in two different phases; shoot initiation and shoot elongation. For shoot initiation, […] cotyledonary node explants were cultured with the adaxial surface touching the medium in Petri plates (FIG. 1A). The explants were cultured on Gamborg's B5 medium (Gamborg et al., 1968), supplemented with 3% (w/v) sucrose, 0.8% Phyto agar (Caisson Laboratories Inc.), pH 5.8 (shoot initiation medium, SIM) with different combinations of growth regulators (Table 1). […]
# [2] = tested on: cotyledonary node explants of guar variety Kinman; experiment: Multiple shoot regeneration from cotyledonary node explants on B5 medium with growth regulators (Kinman); conditions: percentage of explants that formed shoots; B5 shoot initiation medium, hormone concentrations in μM
# Description: as §1, §2
# regenerated guar shoots = experiment: Root induction from regenerated guar shoots; conditions: regenerated guar shoots in rooting medium
# Description: Root induction from the regenerated shoots. Non-transgenic shoots (two weeks old) from the shoot elongation medium were subjected to two different rooting procedures. Five 10 mm long shoots were harvested from the shoot elongation medium (SEM), the basal region was cut in order to remove any callus or necrotic tissue and the shoot ends were dipped either in a lawn of Agrobacterium rhizogenes (strain ARqua1) and transferred to root induction medium 1 (Farhaeus medium (Dazzo and Hubbell, 1982) solidified with 0.9-1.0% Gelrite) or directly transferred to root induction medium 2 (½ MS salts, Gamborg's B5 vitamins, 2.5% sucrose, 0.5-2.00 mg/l indole 3-butyric acid (IBA), agar 0.8%, pH 5.8) without any Agrobacterium rhizogenes inoculum. To prepare the A. rhizogenes lawn, a single colony was inoculated in 2 ml liquid Farhaeus medium containing 250 mg/l streptomycin in a 10 ml culture tube and cultured for 2-3 days at 28° C. on a rotary shaker. When the O.D. (600 nm) reached 1.0, 50-120 μl of the suspension was spread on a solid Farhaeus plate containing 250 mg/l streptomycin and 0.3% Gelrite. Within 3 days the bacteria formed a lawn on the plate which was subsequently used for infecting the shoot bases. Roots developed within 4 weeks and the rooted plants were transferred to the soil and grown in a growth chamber at 30° C. and 12 hrs of light.
# Study of root anatomy. […]
SMILES,Shoot morphogenesis frequency (%) in the genotype Lewis [1],Shoot morphogenesis frequency (%) in the genotype Kinman [2],shoots that formed callus at the base (regenerated guar shoots)
"c1ccc(CNc2ncnc3nc[nH]c23)cc1 [BAP 4.44, 6-benzylaminopurine]",25.89%,26.49%,–
"O=C(O)CCCc1c[nH]c2ccccc12 [IBA, indole 3-butyric acid]",–,–,more than 90%
"O=C(Nc1ccccc1)Nc1cnns1 [TDZ 9.10, Thidiazuron]",31.67%,33.33%,–
